Common to all, as to type: cell-based
The test system of one assay is Magnaporthe grisea. The assay is described as follows: microbe, parasite or virus in culture. The settings on record: Pyricularia oryzae, 72 h, read-out: Independent MIC.
The test system of the next assay is Mucor sp. The assay is described as follows: Broth microdilution MIC of individual antifungals. The settings on record: individual antifungal, 25% PDB, about 25° C., 72 hours, range over N independent triplicate studies. A general note: Dilution methods test growth across graded concentrations, often in twofold steps.
For another assay, the system named is Sclerotinia homoeocarpa. Nature of the assay: Broth microdilution MIC of individual antifungals. The settings on record: Sclerotinia homoeocarpa, individual antifungal, 25% PDB, about 25° C., 72 hours, range over N independent triplicate studies; for MIC: Clarireedia homoeocarpa, read-out: Independent MIC.
The next assay concerns Alternaria solani. The assay is described as follows: Broth microdilution MIC of individual antifungals. The settings on record: individual antifungal, 25% PDB, about 25° C., 72 hours, range over N independent triplicate studies; for MIC: read-out: Independent MIC.
The subject of assay [1] is Mycosphaerella zeae-maydis. Nature of the assay: Broth microdilution MIC of individual antifungals. The settings on record: Didymella maydis, individual antifungal, 25% PDB, about 25° C., 72 hours, range over N independent triplicate studies.
A further assay concerns Phytophthora pini. The assay is described as follows: Broth microdilution MIC of individual antifungals. The settings on record: individual antifungal, 25% PDB, about 25° C., 72 hours, range over N independent triplicate studies.
The next assay relates to Botrytis cinerea 10-1728. Nature of the assay: Broth microdilution MIC of individual antifungals. The settings on record: Botrytis cinerea 10-1728, individual antifungal, 25% PDB, about 25° C., 72 hours, range over N independent triplicate studies; for MIC: 101728, read-out: Independent MIC.
In a further assay the test system is Fusarium graminearum. Nature of the assay: microbe, parasite or virus in culture. The settings on record: Fusarium graminearum, 72 h, read-out: Independent MIC.
For another assay, the system named is Penicillium chrysogenum. The assay is described as follows: Broth microdilution MIC of individual antifungals. The settings on record: read-out: Independent MIC.
In the next assay the test system is Stachybotrys chartarum. Nature of the assay: Broth microdilution MIC of individual antifungals. The settings on record: 72 h, read-out: Independent MIC.
The next assay deals with Aureobasidium pullulans. The assay is described as follows: Broth microdilution MIC of individual antifungals. The settings on record: 72 h, read-out: Independent MIC.
The next assay deals with Aspergillus fumigatus. The assay is described as follows: Broth microdilution MIC of individual antifungals. The settings on record: individual antifungal, 25% PDB, about 25° C., 72 hours, range over N independent triplicate studies, read-out: Independent MIC.
Assay [2] concerns Colletotrichum orbiculare. Nature of the assay: Broth microdilution MIC of individual antifungals. The settings on record: 72 h, read-out: Independent MIC.
For another assay, the system named is Botrytis cinerea B17. The assay is described as follows: Broth microdilution MIC of individual antifungals. The settings on record: Botrytis cinerea, B17, 72 h, read-out: Independent MIC.
Another assay relates to Rhizopus sp. Nature of the assay: Broth microdilution MIC of individual antifungals. The settings on record: Rhizopus, 72 h, read-out: Independent MIC.
Another assay concerns Aspergillus niger. The assay is described as follows: Broth microdilution MIC of individual antifungals. The settings on record: read-out: Independent MIC.
A further assay has as its system Aspergillus flavus. Nature of the assay: Broth microdilution MIC of individual antifungals. The settings on record: individual antifungal, 25% PDB, about 25° C., 72 hours, range over N independent triplicate studies, read-out: Independent MIC.
The subject of the next assay is Fusarium verticillioides. The assay is described as follows: Broth microdilution MIC of individual antifungals. The settings on record: individual antifungal, 25% PDB, about 25° C., 72 hours, range over N independent triplicate studies, read-out: Independent MIC.
Where [3] appears, read: individual antifungal, 25% PDB, about 25° C., 72 hours, range over N independent triplicate studies.
Setting [4] is: Rhizopus sp., individual antifungal, 25% PDB, about 25° C., 72 hours, range over N independent triplicate studies.

Each structure is given as a SMILES string. In brackets after ≈: the same amount, converted by molar mass. Like-named read-outs stand apart in the source and are kept apart here.

The values that follow come from patent US9737075B2, “Synergistic benzoxaborole-containing anti-fungicidal composition” (The Penn State Research Foundation, priority 2015, dated 2017).

`C=CCOC1=NS(=O)(=O)c2ccccc21` [Probenazole, probenazole]: the MIC with Magnaporthe grisea is 100 µg/mL (≈ 448 µM); in the assay with Mucor sp., 200 µg/mL; with Sclerotinia homoeocarpa, 50 to 100 µg/mL; in the assay on Alternaria solani, 200 µg/mL; in assay [1], 200 µg/mL; in the assay on Phytophthora pini, 200 µg/mL. In addition, the MIC in the assay with Botrytis cinerea 10-1728 was 100 µg/mL.

`CC(Oc1ccc(Cl)cc1Cl)C(=O)NC(C)(C#N)C(C)C` (stereo not shown) [Fenoxanil, fenoxanil]: the “Independent MIC” value in the assay with Mucor sp. was “(50-100) μg/mL”; in the assay on Sclerotinia homoeocarpa it was 200 µg/mL; in the assay on Alternaria solani, 200 µg/mL; in the assay with Botrytis cinerea 10-1728, “(100-200) μg/mL”.

In the case of `CCCCc1c(C)nc(NCC)[nH]c1=O` [Ethirimol, ethirimol], the MIC with Sclerotinia homoeocarpa is 200 µg/mL; in assay [1] it was 400 µg/mL; with Phytophthora pini it was 200 µg/mL; in the assay on Botrytis cinerea 10-1728 it was 200 to 400 µg/mL.

Consider `CSC1=N[C@@](C)(c2ccccc2)C(=O)N1Nc1ccccc1` [Fenamidone, fenamidone], for which the MIC in the assay with Mucor sp. was 50 to 200 µg/mL; with Sclerotinia homoeocarpa it was 100 to 200 µg/mL; in the assay with Alternaria solani it was 100 to 200 µg/mL; in assay [1] it was 50 to 200 µg/mL; in the assay on Botrytis cinerea 10-1728 it was 100 µg/mL.

Consider `CCCOC(=O)NCCCN(C)C` [Propamocarb, propamocarb], for which the MIC was 200 to 400 µg/mL in the assay with Mucor sp., 200 µg/mL in the assay on Sclerotinia homoeocarpa, 100 to 200 µg/mL with Alternaria solani and 100 to 400 µg/mL with Botrytis cinerea 10-1728.

As to `OB1OCc2ccccc21` [BO, 2-(hydroxymethyl)benzene boronic acid hemiester], the MIC with Fusarium graminearum is 2 to 4 µg/mL (≈ 14.9 to 29.9 µM).

On to `N#Cc1c[nH]cc1-c1cccc2c1OC(F)(F)O2` [Fludioxonil, fludioxonil], for which the MIC in the assay with Magnaporthe grisea is 0.16 to 0.31 µg/mL (≈ 0.645 to 1.25 µM); with Penicillium chrysogenum (72 h), 0.012 to 0.048 µg/mL; in the assay with Fusarium graminearum, 50 µg/mL (≈ 201 µM); with Sclerotinia homoeocarpa, 0.125 to 0.25 µg/mL; with Stachybotrys chartarum, 2 µg/mL; in assay [1], 2 µg/mL. Besides, the MIC in the assay on Aureobasidium pullulans is 3 to 3.12 µg/mL; in the assay on Aspergillus fumigatus, 0.25 to 1 µg/mL; in assay [2], 0.195 to 0.39 µg/mL; with Phytophthora pini, 200 µg/mL; with Botrytis cinerea B17, 0.5 µg/mL; in the assay with Botrytis cinerea 10-1728, 0.5 to 0.78 µg/mL. Further, the MIC in the assay with Rhizopus sp. fell in the range of 50 to 80 µg/mL.

For the molecule `C=CC1(C)OC(=O)N(c2cc(Cl)cc(Cl)c2)C1=O` (stereo not shown) [Vinclozolin, vinclozolin], the MIC fell in the range of 100 to 200 µg/mL in the assay with Mucor sp.; 4 to 5 µg/mL with Sclerotinia homoeocarpa; 6.25 to 16 µg/mL in assay [1]; 100 to 200 µg/mL in the assay on Aspergillus fumigatus; 50 to 100 µg/mL with Aspergillus niger (setting [3]); 100 to 400 µg/mL in the assay with Botrytis cinerea 10-1728. Moreover, the MIC in the assay with Rhizopus sp. (setting [4]) was found to be 100 µg/mL.

`CC(C)Oc1cccc(NC(=O)c2ccccc2C(F)(F)F)c1` [Flutolanil, flutolanil]: the MIC in the assay on Botrytis cinerea 10-1728 is 400 µg/mL.

As for `COC(=O)Nc1nc2ccccc2[nH]1` [Carbendazim, carbendazim], the MIC in the assay with Magnaporthe grisea is 0.39 to 0.78 µg/mL (≈ 2.04 to 4.08 µM); in the assay on Fusarium graminearum, 1.56 µg/mL (≈ 8.16 µM); in the assay on Sclerotinia homoeocarpa, 0.05 to 0.1 µg/mL; in [1], 1.56 to 2 µg/mL; in the assay on Aspergillus fumigatus, 1.56 to 3.12 µg/mL; in the assay with Aspergillus niger (72 h) it was 1 to 1.56 µg/mL. For the same molecule, the MIC in the assay on Aspergillus flavus was in the range of 0.78 to 3.12 µg/mL; with Fusarium verticillioides, 3.12 to 4 µg/mL.

For `CCCCc1c(C)nc(NCC)nc1OS(=O)(=O)N(C)C` [Bupirimate], the MIC with Magnaporthe grisea is 50 µg/mL (≈ 158 µM); with Mucor sp., 100 µg/mL; with Sclerotinia homoeocarpa, 50 to 100 µg/mL; in the assay with Phytophthora pini, 50 µg/mL; with Botrytis cinerea 10-1728, 100 µg/mL.

`CCC(C)(NC(=O)c1cc(Cl)c(C)c(Cl)c1)C(=O)CCl` (stereo not shown) [Zoxamide, zoxamide]: the MIC with Botrytis cinerea 10-1728 is 0.39 to 1.6 µg/mL.

Take `CC#Cc1cc(C)nc(Nc2ccccc2)n1` [Mepanipyrim, mepanipyrim]: the MIC with Penicillium chrysogenum (setting [3]) is 0.025 to 0.048 µg/mL; in the assay on Sclerotinia homoeocarpa, 0.098 to 0.19 µg/mL; in the assay with Aspergillus fumigatus, 0.05 to 0.1 µg/mL; in the assay on Aspergillus niger (setting [3]), 25 µg/mL; in the assay with Aspergillus flavus it was 0.75 µg/mL; in the assay on Botrytis cinerea 10-1728, 50 to 100 µg/mL. The MIC with Rhizopus sp. (setting [4]) was 50 µg/mL.
